Assay results reported in patent US20050043396A1, “5-Benzoylamino-1,3-dioxacyclanes, the method for preparing the same and their use as PKC inhibitor” (priority 2003, published 2005).
Marks after values point to notes of the source that are not given here.

Tested on: model of the ear swilling of mice
Experiment: Anti-inflammatory activity: xylene-induced ear swelling of mice (recognized PKC inhibitor model)
Format: in vivo, Male Kunming species mice
Procedure: Based on the knowledge of cycloacetals as structural types of the PKC inhibitors, the PKC inhibitor model recognized (i.e. model of the ear swilling of mice) was adopted to evaluate the activity of cycloacetals 1-21 as PKC inhibitor.
In the present invention the model of the ear swilling of mice was used to evaluate the anti-inflammatory activity of 5-benzoylamino-1,3-dioxscyclane compounds. The compounds of the present invention were suspended in CMC solution (5%) at the ratio of […], while the positive control was the suspension of aspirin, and CMC solution (5%) at the ratio of […], and the vehicle control was CMC solution (5%). Male Kunming species mice (from Animal Department of Beijing Medical University, grade 2) with weight about 20-25 g, which were randomly divided into treatment group, vehicle control group, and positive control group with 10 mice each group (food deprivation for 8 hours before testing, drinking unlimited) were administered orally once. 30 minutes after the administration, xylene (0.02 ml) was smeared on the left exterior auricular of the mice, and 4 hours later, the mice were killed by dislocation of cervical vertebra. Double circular pinnae were taken from two ears using 9 mm punching bear, and the swelling was determined by the weight variation of the two pinnae.
An adaptation of the method of Gad et al (1986) was employed for sensitization. Mice were allowed to acclimate for a week after arrival in the laboratory, then were screened to remove any from testing which have ears that appear red or swollen. Male Kunming species, 6 to 8 weeks old, about 20-25 g, were shaved and tape stripped at the start of each study. Mice were randomly divided into test group, vehicle control group, and positive control group with 10 mice each one.
[…] The application was allowed to dry before the animal was returned to its cage. Mice were killed 4 hours later, and a 9-mm Keyes cutaneous punch was used to obtain uniform tissue sections for weight variation which indicating the swelling degree. Groups were statistically analyzed using the Wilk-Shapiro test for normality and the paired parametric Student t test with a significance level of p<0.05. Data were expressed as the mean difference plus or minus the standard error.
Each mouse in the vehicle control mice group was administered orally 0.2 ml of carboxymethyl cellulose (0.5%) once a day, while each mouse in the positive control group was administered orally suspension of 0.6 mg of aspirin in 0.2 ml of carboxymethyl cellulose (0.5%) once a day, and each mouse in the test group was administed orally the suspension of 0.6 mg of the compounds of the present invention in 0.2 ml of carboxymethyl cellulose (0.5%) once a day. The applications were repeated for three consecutive days.
Administered with the same manner and dosage.

[1] = administered orally 1 time, 30 mg/kg, n = 10 (Table 2)
[2] = oral once a day for 3 consecutive days, Dosage = 30 mg/Kg, n = 10, weight difference of 9 mm ear punches, xylene
[3] = administered orally 1 time, 21 mg/kg, n = 10 (Table 2)

With `CC(=O)Oc1ccccc1C(=O)O` [Aspirin, aspirin, reference compound] the “Weight variation (X ± SD mg)” value [1] was 4.17 ± 1.80^1) mg and the “Weight variation (X ± SD mg)” value [2] was 4.26 ± 1.44^1) mg.

`COC(CC1OCC(NC(=O)c2ccccc2)C(C)O1)OC` (centres unmarked) [Compound 9] was tested, and the “Weight variation (X ± SD mg)” value [1] was 3.28 ± 2.06^3,5) mg and the “Weight variation (X ± SD mg)” value [2] was 3.97 ± 1.49^1) mg.

`COC(CC1OCCC(NC(=O)c2ccccc2)CO1)OC` (centres unmarked) [Compound 18] was tested, and the “Weight variation (X ± SD mg)” value [3] was 4.31 ± 1.75^1) mg.

`C[C@@H]1O[C@@H](c2ccc([N+](=O)[O-])cc2)OC[C@H]1NC(=O)c1ccccc1` [Compound 24, (2S,4S,5R)-2-p-nitrophenyl-5-benzoylamino-4-methyl-1,3-dioxane] was tested, and the “Weight variation (X ± SD mg)” value (dosage-effect relationship, 2.3 mg/Kg (Table 3)) was 3.21 ± 1.68 mg, the “Weight variation (X ± SD mg)” value (dosage-effect relationship, 7 mg/Kg (Table 3)) was 1.81 ± 0.63 mg and the “Weight variation (X ± SD mg)” value (dosage-effect relationship, 30 mg/Kg (Table 3)) was 1.43 ± 0.89 mg.

In the case of `O=CCC1OCC(NC(=O)c2ccccc2)CO1` (centres unmarked) [Compound 38], the “Weight variation (X ± SD mg)” value [1] is reported as 5.81 ± 2.46 mg.

With `CC1OC(CC=O)OCC1NC(=O)c1ccccc1` (centres unmarked) [Compound 39] the “Weight variation (X ± SD mg)” value [1] was 4.84 ± 2.30^1) mg.

For `O=CCC1OCCC(NC(=O)c2ccccc2)CO1` (centres unmarked) [Compound 40], the “Weight variation (X ± SD mg)” value [3] was 3.55 ± 1.69^3,6) mg.
